Test results as given in US9440952B2, “Compounds inhibiting leucine-rich repeat kinase enzyme activity” (Merck Sharp & Dohme Corp., priority 2013, dated 2016).

What follows are compounds tested against T1, LRRK2(G2019S mutation, GST-LRRK2(amino acids 970-2527)) (Homo sapiens, UniProt Q5S007, G2019S) (assay: LRRK2 Km ATP LanthaScreen Assay). Settings: Km ATP LanthaScreen Assay; LRRK2 G2019S; mean IC50 values; Examples 185-215; read-out: LRRK2 IC5).
T1 construct: GST-LRRK2(amino acids 970-2527); GST (N); purchased Life Technologies Corporation
T1 sequence (Q5S007 970-2527 G2019S): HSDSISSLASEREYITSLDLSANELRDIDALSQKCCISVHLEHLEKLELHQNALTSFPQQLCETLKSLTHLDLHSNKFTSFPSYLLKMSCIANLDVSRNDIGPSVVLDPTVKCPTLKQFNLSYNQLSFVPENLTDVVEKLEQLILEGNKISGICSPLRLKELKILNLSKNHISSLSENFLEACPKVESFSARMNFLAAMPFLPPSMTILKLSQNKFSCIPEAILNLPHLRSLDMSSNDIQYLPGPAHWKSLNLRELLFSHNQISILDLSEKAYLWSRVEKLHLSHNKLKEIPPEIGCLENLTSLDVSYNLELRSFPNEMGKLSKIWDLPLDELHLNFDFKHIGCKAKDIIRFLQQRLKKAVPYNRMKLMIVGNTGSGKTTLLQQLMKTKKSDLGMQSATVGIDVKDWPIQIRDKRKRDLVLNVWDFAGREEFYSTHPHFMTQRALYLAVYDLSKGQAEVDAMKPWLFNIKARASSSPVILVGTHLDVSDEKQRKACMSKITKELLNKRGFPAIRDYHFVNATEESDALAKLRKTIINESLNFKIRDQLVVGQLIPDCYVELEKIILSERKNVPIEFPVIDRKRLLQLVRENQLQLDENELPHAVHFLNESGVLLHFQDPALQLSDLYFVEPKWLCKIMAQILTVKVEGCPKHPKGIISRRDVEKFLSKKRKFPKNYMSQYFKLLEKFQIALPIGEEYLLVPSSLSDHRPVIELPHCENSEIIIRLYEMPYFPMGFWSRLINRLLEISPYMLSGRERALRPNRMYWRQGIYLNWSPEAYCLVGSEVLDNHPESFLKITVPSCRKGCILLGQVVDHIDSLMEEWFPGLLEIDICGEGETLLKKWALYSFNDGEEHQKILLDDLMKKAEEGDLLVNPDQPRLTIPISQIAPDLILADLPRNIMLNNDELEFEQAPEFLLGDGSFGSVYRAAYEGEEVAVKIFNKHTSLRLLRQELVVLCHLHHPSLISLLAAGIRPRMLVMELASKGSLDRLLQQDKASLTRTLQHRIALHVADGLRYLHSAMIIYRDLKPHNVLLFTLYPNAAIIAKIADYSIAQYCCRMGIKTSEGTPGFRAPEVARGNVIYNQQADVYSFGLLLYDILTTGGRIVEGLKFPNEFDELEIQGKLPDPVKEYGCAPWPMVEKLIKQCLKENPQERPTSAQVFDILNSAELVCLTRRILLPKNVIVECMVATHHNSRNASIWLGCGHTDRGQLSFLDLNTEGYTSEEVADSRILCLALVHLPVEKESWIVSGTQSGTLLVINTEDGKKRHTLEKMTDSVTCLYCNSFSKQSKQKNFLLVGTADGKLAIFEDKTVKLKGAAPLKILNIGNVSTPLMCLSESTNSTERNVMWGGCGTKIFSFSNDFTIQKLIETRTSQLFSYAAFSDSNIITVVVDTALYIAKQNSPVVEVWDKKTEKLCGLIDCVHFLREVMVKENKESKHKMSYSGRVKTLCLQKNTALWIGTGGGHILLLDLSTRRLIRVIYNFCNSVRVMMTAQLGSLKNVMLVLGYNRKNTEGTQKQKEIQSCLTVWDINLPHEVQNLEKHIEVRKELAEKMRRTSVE
Assay type: biochemical
Method: Unless otherwise noted, all LRRK2 IC50 data presented in tables refers to the LRRK2 Km ATP LanthaScreen™ Assay that is described in the Biological Assay section.
The data presented for the 5 mM and Km ATP LanthaScreen™ Assay represents mean IC50 values based on several test results and may have reasonable. deviations depending on the specific conditions and reagents used. Reagents for the LRRK2 5 mM and Km ATP LanthaScreen™ Assay were purchased from Life Technologies Corporation.
Results are analysed using Assay Data Analyzer.
`CC(C)Oc1ccc2[nH]nc(-c3ccnc(N4CCN(c5nccs5)CC4)c3)c2c1` [Example 203] was tested, and the IC50 was 13.4 nM.
Compound `CC(C)Oc1ccc2[nH]nc(-c3ccnc(N4CCCN(S(C)(=O)=O)CC4)c3)c2c1` [Example 189] has an IC50 of 22.4 nM.
`CC(C)Oc1ccc2[nH]nc(-c3ccnc(N4CCCC4)c3)c2c1` [Example 201] gave an IC50 of 5 nM.

Same assay, conditions: Km ATP LanthaScreen Assay; LRRK2 G2019S; mean IC50 values; read-out: LRRK2 IC50
Work on `CC(C)Oc1ccc2[nH]nc(-c3ccnc(NC(=O)CC4CC4)c3)c2c1` [Example 152] yielded an IC50 of 35.8 nM.
For `O=C(O)[C@H]1CCCN(c2cc(-c3n[nH]c4ccccc34)ccn2)C1` [Example 41], the IC50 was 24 nM.
`OC1CCN(c2cc(-c3n[nH]c4ccc(OC(F)(F)F)cc34)ccn2)CC1` [Example 231] was tested, and the IC50 was 82.7 nM.
Compound `c1ccc2c(-c3ccnc(N4CCN(CCCN5CCOCC5)CC4)c3)n[nH]c2c1` [Example 53] has an IC50 of 18 nM.
`c1ccc(C2CCN(c3cc(-c4n[nH]c5ccccc45)ccn3)CC2)nc1` [Example 22] was tested, and the IC50 was 20 nM.
`CCc1nnc2n1CCN(c1cc(-c3n[nH]c4ccc(OC(F)(F)F)cc34)ccn1)C2` [Example 249] was tested, and the IC50 was 190 nM.
`CC(C)Oc1ccc2[nH]nc(-c3ccnc(N4CC[C@H](O)C4)c3)c2c1` [Example 181] was tested, and the IC50 was 8.2 nM.
Compound `CC(C)Oc1ccc2[nH]nc(-c3ccnc(NCC4CC4)c3)c2c1` [Example 134] has an IC50 of 2 nM.
`CC(C)Oc1ccc2[nH]nc(-c3ccnc(NC(=O)c4ccc(C#N)cc4)c3)c2c1` [Example 143] gave an IC50 of 113 nM.
`CCOc1ccc2[nH]nc(-c3ccnc(N4C5CCCC4CC5)c3)c2c1` [Example 228] was tested, and the IC50 was 48.9 nM.
`CCOc1ccc2[nH]nc(-c3ccnc(N4CC5C(C4)C5(C#N)c4ccccn4)c3)c2c1` (centres unmarked) [Example 229] was tested, and the IC50 was 113 nM.
In the case of `OCC1CN(c2cc(-c3n[nH]c4ccccc34)ccn2)CCCO1` (centres unmarked) [Example 37], the IC50 is reported as 64 nM.
For `CC(C)Oc1ccc2[nH]nc(-c3ccnc(N4CC(O)(C(F)(F)F)C4)c3)c2c1` [Example 182], the IC50 was 10.8 nM.
Compound `CNCc1ccc2[nH]nc(-c3ccnc(N4CCOCC4)c3)c2c1` [Example 90] has an IC50 of 302 nM.
`O=C1CCN(c2cc(-c3n[nH]c4ccccc34)ccn2)CCN1` [Example 72] was tested, and the IC50 was 57 nM.
For `CO[C@H]1CCN(c2cc(-c3n[nH]c4ccc(OC(C)C)cc34)ccn2)C1` [Example 177], the IC50 was 5.2 nM.
`F[C@@H]1CCN(c2cc(-c3n[nH]c4ccc(OC(F)(F)F)cc34)ccn2)C1` [Example 240] was tested, and the IC50 was 206 nM.
`CCOc1ccc2[nH]nc(-c3ccnc(N4CCC(F)(F)C4)c3)c2c1` [Example 223] was tested, and the IC50 was 13.5 nM.

Same assay, conditions: Km ATP LanthaScreen; mean IC50 of several tests; read-out: LRRK2 IC50
Work on `Fc1ccc2c(-c3ccnc(N4CCOCC4)c3)n[nH]c2c1` [Example 392] yielded an IC50 of 32 nM.
For `CC(C)Oc1ccc2[nH]nc(-c3ccnc(N4CCC(F)(F)C4)c3)c2c1` [Example 286], the IC50 was 5.5 nM.
Compound `CC(C)Oc1ccc2[nH]nc(-c3ccnc(N4CCOC4=O)c3)c2c1` [Example 303] has an IC50 of 16 nM.
`CS(=O)(=O)c1ccc2[nH]nc(-c3ccnc(N4CCOCC4)c3)c2c1` [Example 369] showed an IC50 of 109 nM.
In the case of `Cn1cc(-c2ccc3[nH]nc(-c4ccnc(N5CCN(c6nnc(C7CC7)o6)CC5)c4)c3c2)cn1` [Example 276], the IC50 is reported as 2.7 nM.
`c1cc(-c2ccc3[nH]nc(-c4ccnc(N5CCOCC5)c4)c3c2)cnn1` [Example 319] showed an IC50 of 8.2 nM.
`COc1ccc2[nH]nc(-c3ccnc(N4CCOCC4)c3)c2c1` [Example 79] was tested, and the IC50 was 7.4 nM.
In the case of `CC(C)Oc1ccc2[nH]nc(-c3ccnc(N4CC(C(=O)O)C4)c3)c2c1` [Example 284], the IC50 is reported as 2.4 nM.
In the case of `CC(C)Oc1cc2c(-c3ccnc(N4CCOCC4)c3)n[nH]c2cc1F` [Example 364], the IC50 is reported as 1.9 nM.
`Cn1cc(-c2ccc3[nH]nc(-c4ccnc(N5CC(O)C5)c4)c3c2)cn1` [Example 375] gave an IC50 of under 0.6 nM.
In the case of `COc1ccnc(Cl)c1-c1ccc2[nH]nc(-c3ccnc(N4CCOCC4)c3)c2c1` [Example 320], the IC50 is reported as under 0.6 nM.
In the case of `CCOc1ccc2[nH]nc(-c3ccnc(N4CCN(C)CC4)c3)c2c1` [Example 362], the IC50 is reported as 10 nM.
With `CC(O)c1ccc2[nH]nc(-c3ccnc(N4CCOCC4)c3)c2c1` (centres unmarked) [Example 126] the IC50 was 9.9 nM.
`c1ccc(-c2ccc3c(-c4ccnc(N5CCOCC5)c4)n[nH]c3c2)cc1` [Example 125] showed an IC50 of 34 nM.
